This is an account of results in ChEMBL document CHEMBL1134303, “Systematic structure-based design and stereoselective synthesis of novel multisubstituted cyclopentane derivatives with potent antiinfluenza activity” (J Med Chem, 2001).

Structures are written as SMILES. Some results are limits rather than exact numbers.

In this assay the target is Neuraminidase (Influenza A virus (A/Puerto Rico/8/1934(H1N1)), UniProt P03468). Kind of assay: Inhibitory activity against influenza A neuraminidase.
Sequence of Neuraminidase (Influenza A virus (A/Puerto Rico/8/1934(H1N1)), UniProt P03468) (P03468 whole entry): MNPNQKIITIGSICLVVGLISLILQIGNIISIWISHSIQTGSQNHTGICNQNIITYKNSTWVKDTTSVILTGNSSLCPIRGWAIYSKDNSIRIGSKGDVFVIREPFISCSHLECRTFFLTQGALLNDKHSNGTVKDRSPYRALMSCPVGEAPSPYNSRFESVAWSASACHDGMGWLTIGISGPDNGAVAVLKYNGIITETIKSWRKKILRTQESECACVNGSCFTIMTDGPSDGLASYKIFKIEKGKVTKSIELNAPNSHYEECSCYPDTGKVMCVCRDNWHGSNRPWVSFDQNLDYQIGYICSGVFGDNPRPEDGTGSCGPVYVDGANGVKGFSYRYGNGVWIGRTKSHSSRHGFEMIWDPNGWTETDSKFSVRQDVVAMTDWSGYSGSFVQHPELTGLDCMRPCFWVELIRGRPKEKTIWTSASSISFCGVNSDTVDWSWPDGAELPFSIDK

As usually defined, the IC50 is the point on the concentration scale where inhibition reaches its midpoint. A higher IC50 goes with lower potency. Consider `CCC(CC)[C@H](NC(C)=O)[C@@H]1C[C@@H](C(=O)O)C[C@H]1N=C(N)N`, for which the IC50 is under 1 nM. The same measure for `CCC(CC)[C@H](NC(C)=O)[C@@H]1[C@H](O)[C@@H](C(=O)O)C[C@H]1NC(=N)N` [PERAMIVIR ANHYDROUS]: under 1 nM.
